Data: patent US10800789B2, “Antiviral compounds” (Gilead Pharmasset LLC, priority 2012, dated 2020)
Like-named read-outs stand apart in the source and are kept apart here.

Assays:
[1] = tested on: stable HCV 1b RLuc replicon cells (dicistronic genotype 1b Con1 replicon); experiment: Renilla luciferase HCV replicon reporter assay, genotype 1b; assay type: cell-based; conditions: Hepatitis C virus, 72 h, stable 1b Con1 RLuc replicon cells, 72 hours; read-out: 1b
Summary of the method: (§1)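 Antiviral EC50 was determined in HCV replicon cells (stable RLuc lines for 1a H77, 1b Con1, 2a JFH-1 with NS5A L31; J6 NS5A chimera with M31) treated 72 h with compound. Renilla luciferase was then quantified.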

[2] = tested on: stable HCV 1a RLuc replicon cells (dicistronic genotype 1a H77 replicon); experiment: Renilla luciferase HCV replicon reporter assay, genotype 1a; assay type: cell-based; conditions: Hepatitis C virus, 72 h, stable 1a H77 RLuc replicon cells
Summary of the method: as §1

[3] = tested on: Q30R in genotype 1a NS5A (1a Pi-Rluc replicon, Huh-7-derived cured-51 cells); experiment: Replicon assay against resistance mutant 1a Q30R; assay type: cell-based, HCV; conditions: Hepatitis C virus
Method: Antiviral potency (EC50) was determined using a Renilla luciferase (RLuc)-based HCV replicon reporter assay. To perform the assay for genotype 1 and 2a JFH-1, stable HCV 1a RLuc replicon cells (harboring a dicistronic genotype 1a H77 replicon that encodes a RLuc reporter), stable HCV 1b RLuc replicon cells (harboring a dicistronic genotype 1b Con1 replicon that encodes a RLuc reporter), or stable HCV 2a JFH-1 Rluc replicon cells (harboring a dicistronic genotype 2a JFH-1 replicon that encodes a RLuc reporter; with L31 present in NS5A) were dispensed into 384-well plates for EC50 assays. To perform the assay for genotype 2a (with M31 present in NS5A) or 2b, NS5A chimeric genotype 2a JFH-1 replicons that encodes a RLuc-Neo reporter and either genotype 2a J6 strain NS5A gene or genotype 2b MD2b-1 strain NS5A gene (both with M31 present) respectively, were either transiently transfected (t) into Huh-Lunet cells or were established as stably replicating replicon cells (s) is provided. Either cells were dispensed into 384-well plates for EC50 assays. To perform the assay for genotype 3 and 4, NS5A chimeric genotype 1b Con1 replicons that encodes a Pi-RLuc reporter and either genotype 3a S52 strain NS5A gene or genotype 4a ED43 strain NS5A gene respectively, were transiently transfected (t) into Huh-Lunet cells, which were subsequently dispensed into 384-well plates. Compounds were dissolved in DMSO at a concentration of 10 mM and diluted in DMSO either manually or using an automated pipeting instrument. Serially 3-fold diluted compounds were either manually mixed with cell culture media and added to the seeded cells or directly added to the cells using an automated instrument. DMSO was used as a negative (solvent; no inhibition) control, and the protease inhibitor ITMN-191 was included at a concentration>100×EC50 as a positive control. 72 hours later, cells were lysed and Renilla luciferase activity quantified as recommended by the manufacturer (Promega-Madison, Wis.). Non-linear regression was performed to calculate EC50 values.
To determine the antiviral potency (EC50) against resistance mutants, resistance mutations, including M28T, Q30R, Q30H, Q30E, L31M, Y93C, Y93H, and Y93N in genotype 1a NS5A, Y93H and L31V/Y93H in genotype 1b NS5A, and Y93H for in genotype 3a NS5A, were introduced individually into either 1a Pi-Rluc or 1b Pi-Rluc replicons by site directed mutagenesis. Replicon RNA of each resistant mutant was transiently transfected into Huh-7-derived cured-51 cells and antiviral potency was determined on these transfected cells as described above.

[4] = tested on: stable HCV 2a JFH-1 Rluc replicon cells (L31 present in NS5A); experiment: Renilla luciferase HCV replicon reporter assay, genotype 2a JFH-1; assay type: cell-based; conditions: Hepatitis C virus
Summary of the method: as §1

[5] = tested on: NS5A chimeric genotype 2a JFH-1 replicon with genotype 2a J6 strain NS5A gene (M31 present); experiment: Replicon assay, genotype 2a J6 NS5A chimera; assay type: cell-based, HCV; conditions: Hepatitis C virus
Summary of the method: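 72 h compound exposure (3-fold dilutions from 10 mM DMSO stocks) of replicon cells: stable dicistronic RLuc 1a H77, 1b Con1, 2a JFH-1 (NS5A L31); J6-NS5A chimera in JFH-1 (M31), transient in Huh-Lunet or stable. Renilla luciferase read-out, non-linear regression → EC50. DMSO negative control.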

[6] = tested on: NS5A chimeric genotype 2a JFH-1 replicon with genotype 2b MD2b-1 strain NS5A gene (M31 present); experiment: Replicon assay, genotype 2b NS5A chimera; assay type: cell-based, HCV; conditions: Hepatitis C virus
Summary of the method: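 Cells carrying the stable or transiently transfected (Huh-Lunet) dicistronic RLuc replicons received 3-fold serial compound dilutions from 10 mM DMSO stocks. After 72 h, cells were lysed and Renilla luciferase read. DMSO served as the no-inhibition control and ITMN-191 above 100×EC50 as the positive control; EC50 by non-linear regression.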

[7] = tested on: NS5A chimeric genotype 1b Con1 replicon with genotype 3a S52 strain NS5A gene; experiment: Replicon assay, genotype 3a NS5A chimera; assay type: cell-based, HCV; conditions: Hepatitis C virus
[8] = tested on: NS5A chimeric genotype 1b Con1 replicon with genotype 4a ED43 strain NS5A gene; experiment: Replicon assay, genotype 4a NS5A chimera; assay type: cell-based, HCV; conditions: Hepatitis C virus
[9] = read-out: 2a JFH (nM), genotype 2a JFH-1 replicon (L31 in NS5A), stable cells
[10] = read-out: 2a JFH, stable 2a JFH-1 Rluc replicon cells, L31 in NS5A, activity range
[11] = read-out: 2a J6 (t) (nM), genotype 2a J6 NS5A chimeric replicon (M31), transiently transfected (t) into Huh-Lunet cells
[12] = read-out: 2a J6 (t), transiently transfected (t) into Huh-Lunet cells, activity range
[13] = 2BS, read-out: 2b (s), stably replicating replicon cells (s), activity range
[14] = read-out: 2b (s) (nM), genotype 2b MD2b-1 NS5A chimeric replicon (M31), stably replicating replicon cells (s)
[15] = read-out: 3a (s) (nM), genotype 3a NS5A chimeric replicon, stable replicon cells (s)
[16] = read-out: 3a (s), (s), activity range
[17] = read-out: 3a (t) (nM), genotype 3a NS5A chimeric replicon, transiently transfected (t)
[18] = read-out: 3a (t), transiently transfected (t) into Huh-Lunet cells, activity range
[19] = read-out: 4a (s) (nM), genotype 4a NS5A chimeric replicon, stable replicon cells (s)
[20] = read-out: 4a (s), (s), activity range

Row | SMILES | EC50 [1] [pM] | EC50 [2] [pM] | EC50 ([2]; activity range) [pM] | EC50 ([3]; read-out: 1a Q30R) [nM] | EC50 ([3]; read-out: 1a Q30R (nM)) [nM] | EC50 [4, 9] [nM] | EC50 [4, 10] [nM] | EC50 [5, 11] [nM] | EC50 [5, 12] [nM] | EC50 [6, 13] [nM] | EC50 [6, 14] [nM] | EC50 [7, 15] [nM] | EC50 [7, 16] [nM] | EC50 [7, 17] [nM] | EC50 [7, 18] [nM] | EC50 [8, 19] [nM] | EC50 [8, 20] [nM]
1 | COC(=O)N[C@H](C(=O)N1[C@@H](C)CC[C@H]1c1nc(Cl)c(-c2ccc3c(c2)COc2cc4c(ccc5nc([C@@H]6CC[C@H](C)N6C(=O)[C@@H](NC(=O)OC)[C@@H](C)OC)[nH]c54)cc2-3)[nH]1)[C@@H](C)OC [GB, Methyl [(2S,3R)-1-{(2S,5S)-2-[9-(4-chloro-2-{(2S,5S)-1-[N-(methoxycarbonyl)-O-methyl-L-threonyl]-5-methylpyrrolidin-2-yl}-1H-imidazol-5-yl)-1,11-dihydroisochromeno[4′,3′:6,7]naphtho[1,2-d]imidazol-2-yl]-5-methylpyrrolidin-1-yl}-3-methoxy-1-oxobutan-2-yl]carbamate] | 19 | 16 | < 100 | < 0.1 | 0.075 | 0.011 | < 0.1 | 0.023 | < 0.1 | < 0.1 | 0.089 | 0.029 | < 0.1 | 0.034 | < 0.1 | 0.007 | < 0.1
2 | CC[C@H]1C[C@@H](c2nc3ccc4cc5c(cc4c3[nH]2)OCc2cc(-c3cnc([C@@H]4CC[C@H](C)N4C(=O)[C@@H](NC(=O)OC)C(C)C)[nH]3)ccc2-5)N(C(=O)[C@@H](NC(=O)OC)C2CCOCC2)C1 [GV] | 27 | 18 | < 100 | < 0.1 | 0.061 | 0.008 | < 0.1 | 0.012 | < 0.1 | 0.1 to 0.999 | 0.112 | 0.042 | < 0.1 | – | – | 0.016 | < 0.1
3 | COC(=O)N[C@H](C(=O)N1[C@@H](C)CC[C@H]1c1ncc(-c2ccc3c(c2)COc2cc4c(ccc5nc([C@@H]6CC[C@H](C)N6C(=O)[C@@H](NC(=O)OC)[C@H](C)OC)[nH]c54)cc2-3)[nH]1)C(C)C [FK, Methyl [(2S)-1-{(2S,5S)-2-[5-(2-{(2S,5S)-1-[N-(methoxycarbonyl)-O-methyl-L-allothreonyl]-5-methylpyrrolidin-2-yl}-1,11-dihydroisochromeno[4′,3′:6,7]naphtho[1,2-d]imidazol-9-yl)-1H-imidazol-2-yl]-5-methylpyrrolidin-1-yl}-3-methyl-1-oxobutan-2-yl]carbamate] | 37 | 24 | < 100 | 0.1 to 0.999 | 0.498 | 0.038 | < 0.1 | 0.4 | 0.1 to 0.999 | 0.1 to 0.999 | 0.476 | 0.137 | 0.1 to 0.999 | – | – | 0.018 | < 0.1
4 | COC(=O)N[C@H](C(=O)N1[C@@H](C)CC[C@H]1c1ncc(-c2ccc3c(c2)COc2cc4c(ccc5nc([C@@H]6CC[C@H](C)N6C(=O)[C@H](NC(=O)OC)c6ccccc6)[nH]c54)cc2-3)[nH]1)C(C)C [FB, Methyl {(1R)-2-[(2S,5S)-2-(9-{2-[(2S,5S)-1-{(2S)-2-[(methoxycarbonyl)amino]-3-methylbutanoyl}-5-methylpyrrolidin-2-yl]-1H-imidazol-5-yl}-1,11-dihydroisochromeno[4′,3′:6,7]naphtho[1,2-d]imidazol-2-yl)-5-methylpyrrolidin-1-yl]-2-oxo-1-phenylethyl}carbamate] | 14 | 9 | < 100 | < 0.1 | 0.077 | 0.013 | < 0.1 | 0.105 | 0.1 to 0.999 | < 0.1 | 0.081 | 0.026 | < 0.1 | – | – | 0.01 | < 0.1
5 | COC[C@H](NC(=O)OC)C(=O)N1[C@@H](C)CC[C@H]1c1nc2ccc3cc4c(cc3c2[nH]1)OCc1cc(-c2cnc([C@@H]3CC[C@H](C)N3C(=O)[C@@H](NC(=O)OC)C(C)C)[nH]2)ccc1-4 [FE, Methyl [(2S)-1-{(2S,5S)-2-[5-(2-{(2S,5S)-1-[N-(methoxycarbonyl)-O-methyl-L-seryl]-5-methylpyrrolidin-2-yl}-1,11-dihydroisochromeno[4′,3′:6,7]naphtho[1,2-d]imidazol-9-yl)-1H-imidazol-2-yl]-5-methylpyrrolidin-1-yl}-3-methyl-1-oxobutan-2-yl]carbamate] | 15 | 12 | < 100 | 0.1 to 0.999 | 0.253 | 0.016 | < 0.1 | 0.122 | 0.1 to 0.999 | 0.1 to 0.999 | 0.463 | 0.072 | < 0.1 | – | – | 0.012 | < 0.1
6 | COC(=O)N[C@H](C(=O)N1[C@@H](C)CC[C@H]1c1nc(C)c(-c2ccc3c(c2)COc2cc4c(ccc5nc([C@@H]6CC[C@H](C)N6C(=O)[C@@H](NC(=O)OC)[C@@H](C)OC)[nH]c54)cc2-3)[nH]1)[C@@H](C)OC [GD, Methyl [(2S,3R)-3-methoxy-1-{(2S,5S)-2-[9-(2-{(2S,5S)-1-[N-(methoxycarbonyl)-O-methyl-L-threonyl]-5-methylpyrrolidin-2-yl}-4-methyl-1H-imidazol-5-yl)-1,11-dihydroisochromeno[4′,3′:6,7]naphtho[1,2-d]imidazol-2-yl]-5-methylpyrrolidin-1-yl}-1-oxobutan-2-yl]carbamate] | 27 | 19 | < 100 | 0.1 to 0.999 | 0.105 | 0.035 | < 0.1 | 0.04 | < 0.1 | < 0.1 | 0.09 | 0.07 | < 0.1 | 0.042 | < 0.1 | 0.018 | < 0.1
